Converted amounts (≈) assume the structure as drawn. The source made the active and inactive calls. The rule behind the calls is not given here.
Columns and labels:
Staphylococcus aureus [1] = assay: Antibacterial activity against Staphylococcus aureus ATCC 6538 incubated for 24 hrs by microdilution method; assay type: functional
Staphylococcus aureus [2] = assay: Bactericidal activity against Staphylococcus aureus ATCC 6538 incubated for 24 hrs by microdilution method; assay type: functional
Staphylococcus aureus [3] = assay: Antibacterial activity against Staphylococcus aureus ATCC 43300 incubated for 24 hrs by microdilution method; assay type: functional
Staphylococcus aureus [4] = assay: Bactericidal activity against Staphylococcus aureus ATCC 43300 incubated for 24 hrs by microdilution method; assay type: functional
Bacillus subtilis [5] = assay: Antibacterial activity against Bacillus subtilis ATCC 6051 incubated for 24 hrs by microdilution method; assay type: functional
Bacillus subtilis [6] = assay: Bactericidal activity against Bacillus subtilis ATCC 6051 incubated for 24 hrs by microdilution method; assay type: functional
[7] = Drug metabolism in Staphylococcus aureus ATCC 6538 assessed as reduction in formaldehyde content incubated for 1 hr by LC-MS analysis; assay type: ADME
[8] = Drug metabolism in Staphylococcus aureus ATCC 6538 assessed as reduction in 5-((4-hydroxy-2-oxo-2H-pyran-6-yl)methyl)-2-methyl-4H-chromen-4-one content incubated for 1 hr by LC-MS analysis; assay type: ADME
Pseudomonas aeruginosa = assay: Antibacterial activity against Pseudomonas aeruginosa ATCC 10145 incubated for 24 hrs by microdilution method; assay type: functional, organism-based
Escherichia coli = assay: Antibacterial activity against Escherichia coli ATCC 11175 incubated for 24 hrs by microdilution method; assay type: functional, organism-based
Candida albicans = assay: Antifungal activity against Candida albicans ATCC 10231 incubated for 24 hrs by microdilution method; assay type: functional, organism-based
Nakaseomyces glabratus = assay: Antifungal activity against Candida glabrata ATCC 2001 incubated for 24 hrs by microdilution method; assay type: functional, organism-based
Staphylococcus aureus [9] = assay: Bacteriostatic activity against methicillin-resistant Staphylococcus aureus ATCC 43300 assessed as reduction in bacterial colonies at 2 to 8 times MIC measured after 24 hrs by time kill assay; assay type: functional, organism-based
Staphylococcus aureus [10] = assay: Induction of drug resistance in Staphylococcus aureus ATCC 6538 assessed as increase in MIC measured after 20 passages incubated for 24 hrs; assay type: functional, organism-based
Streptomyces sp. = assay: Protection against formaldehyde-induced toxicity in Streptomyces sp. OUCMDZ-4982 cultured in Gauze medium; assay type: functional, organism-based
[11] = Drug metabolism in Staphylococcus aureus ATCC 6538 assessed as phaeochromycinF formation incubated for 1 hr by LC-MS analysis; assay type: ADME
[12] = Drug metabolism in Bacillus subtilis ATCC 6051 assessed as phaeochromycinF formation incubated for 1 hr by LC-MS analysis; assay type: ADME
Staphylococcus aureus [13] = assay: Antibiotic activity against Staphylococcus aureus ATCC 6538 assessed as compound dimer phaeochromycinF mediated reduction in bacterial growth in LB medium measured upto 8 days; assay type: functional, organism-based; conditions: time <= 8.0 day
Bacillus subtilis [14] = assay: Antibiotic activity against Bacillus subtilis ATCC 6051 assessed as compound dimer phaeochromycinF mediated reduction in bacterial growth in LB medium measured upto 8 days; assay type: functional, organism-based; conditions: time <= 8.0 day
[15] = Chemical reactivity of compound in formaldehyde assessed as (1S,2R,18R,19R,22S,25R,28R,40S)-48-[(2S,3R,4S,5S,6R)-3-[(2S,4S,5S,6S)-4-amino-5-hydroxy-4,6-dimethyl-tetrahydropyran-2-yl]oxy-4,5-dihydroxy-6-(hydroxymethyl)tetrahydropyran-2-yl]oxy-22-(2-amino-2-oxo-ethyl)-5,15-dichloro-2,18,32,35,37-pentahydroxy-19-[(4R)-4-isobutyl-3-methyl-5-oxo-imidazolidin-1-yl]-20,23,26,42,44-pentaoxo-7,13-dioxa-21, …; assay type: physicochemical
[16] = Chemical reactivity of compound in formaldehyde assessed as (4R,4aR,5aS,12aR)-9-(3-(tert-butyl)-5-oxoimidazolidin-1-yl)-4,7-bis(dimethylamino)-3,10,12,12a-tetrahydroxy-1,11-dioxo-1,4,4a,5,5a,6,11,12a-octahydrotetracene-2-carboxamide formation; assay type: physicochemical
[17] = Chemical reactivity of compound in acetaldehyde assessed as (1S,2R,18R,19R,22S,25R,28R,40S)-48-[(2S,3R,4S,5S,6R)-3-[(2S,4S,5S,6S)-4-amino-5-hydroxy-4,6-dimethyl-tetrahydropyran-2-yl]oxy-4,5-dihydroxy-6-(hydroxymethyl)tetrahydropyran-2-yl]oxy-22-(2-amino-2-oxo-ethyl)-5,15-dichloro-2,18,32,35,37-pentahydroxy-19-[(2R,4R)-4-isobutyl-2,3-dimethyl-5-oxo-imidazolidin-1-yl]-20,23,26,42,44-pentaoxo-7,13-di …; assay type: physicochemical
[18] = Drug metabolism in Staphylococcus aureus ATCC 6538 assessed as (1S,2R,18R,19R,22S,25R,28R,40S)-48-[(2S,3R,4S,5S,6R)-3-[(2S,4S,5S,6S)-4-amino-5-hydroxy-4,6-dimethyl-tetrahydropyran-2-yl]oxy-4,5-dihydroxy-6-(hydroxymethyl)tetrahydropyran-2-yl]oxy-22-(2-amino-2-oxo-ethyl)-5,15-dichloro-2,18,32,35,37-pentahydroxy-19-[(4R)-4-isobutyl-3-methyl-5-oxo-imidazolidin-1-yl]-20,23,26,42,44-pentaoxo-7,13-dioxa- …; assay type: ADME
Staphylococcus aureus [19] = assay: microbe, parasite or virus in culture; conditions: ATCC 6538
Description: Antibacterial activity against Staphylococcus aureus ATCC 6538 in presence of 4 mg/L HCHO by microdilution method

Staphylococcus aureus [20] = assay: microbe, parasite or virus in culture; conditions: ATCC 6538; remark: listed apart in the source
Description: Antibacterial activity against Staphylococcus aureus ATCC 6538 in presence of 8 mg/L HCHO by microdilution method

Staphylococcus aureus [21] = assay: microbe, parasite or virus in culture; conditions: ATCC 43300
Description: Antibacterial activity against methicillin-resistant Staphylococcus aureus ATCC 43300 in presence of 4 mg/L HCHO by microdilution method

Staphylococcus aureus [22] = assay: microbe, parasite or virus in culture; conditions: ATCC 43300; remark: listed apart in the source
Description: Antibacterial activity against methicillin-resistant Staphylococcus aureus ATCC 43300 in presence of 8 mg/L HCHO by microdilution method

Row | SMILES | Activity (Pseudomonas aeruginosa) | Activity (Escherichia coli) | Activity (Candida albicans) | Activity (Nakaseomyces glabratus) | also measured
1 | Cc1cc(=O)c2c(Cc3cc(O)c(Cc4c(O)cc(Cc5cccc6oc(C)cc(=O)c56)oc4=O)c(=O)o3)cccc2o1 | inactive | inactive | inactive | inactive | MIC (Staphylococcus aureus [1]): 1 µg/mL (≈ 1.72 µM); MBC (Staphylococcus aureus [2]): 4 µg/mL (≈ 6.89 µM); MIC (Staphylococcus aureus [3]): 2 µg/mL (≈ 3.45 µM); MBC (Staphylococcus aureus [4]): 8 µg/mL (≈ 13.8 µM); MIC (Bacillus subtilis [5]): 0.5 µg/mL (≈ 0.861 µM); MBC (Bacillus subtilis [6]): 1 µg/mL (≈ 1.72 µM); Drug metabolism [7]: metabolite_notdetected; Drug metabolism [8]: metabolite_notdetected; Activity (Staphylococcus aureus [9]): Active; Activity (Staphylococcus aureus [10]): inactive
2 | Cc1cc(=O)c2c(Cc3cc(O)c([C@H]4c5c(cc(Cc6cccc7oc(C)cc(=O)c67)oc5=O)O[C@H]4CC(=O)O)c(=O)o3)cccc2o1 | inactive | inactive | inactive | inactive | 
3 | O=C(O)c1cn(C2CC2)c2cc(N3CCNCC3)c(F)cc2c1=O [CIPROFLOXACIN] |  |  |  |  | MIC (Staphylococcus aureus [1]): 0.5 µg/mL (≈ 1.51 µM); MIC (Staphylococcus aureus [3]): 1 µg/mL (≈ 3.02 µM); MBC (Staphylococcus aureus [4]): 4 µg/mL (≈ 12.1 µM); MIC (Bacillus subtilis [5]): 0.13 µg/mL (≈ 0.392 µM); MBC (Bacillus subtilis [6]): 0.13 µg/mL (≈ 0.392 µM)
4 | Cc1cc(=O)c2c(Cc3cc(O)c(Cc4c(O)cc(CC5(O)CC(=O)c6c(C)cc(O)cc6O5)oc4=O)c(=O)o3)cccc2o1 (stereo not drawn) | inactive | inactive | inactive | inactive | 
5 | CC(=O)c1c(O)cccc1Cc1cc(O)c(Cc2c(O)cc(Cc3cccc4oc(C)cc(=O)c34)oc2=O)c(=O)o1 | inactive | inactive | inactive | inactive | 
6 | Cc1cc(=O)c2c(Cc3cc(O)cc(=O)o3)cccc2o1 | inactive | inactive | inactive | inactive | Activity (Streptomyces sp.): Active; Drug metabolism [11]: metabolite_detected; Drug metabolism [12]: metabolite_detected; Activity (Staphylococcus aureus [13]): Active; Activity (Bacillus subtilis [14]): inactive
7 | CC1(O)CC(=O)c2c(Cc3cc(O)c(Cc4c(O)cc(Cc5cccc6c5C(=O)CC(C)(O)O6)oc4=O)c(=O)o3)cccc2O1 (stereo not drawn) | inactive | inactive | inactive | inactive | 
8 | Cc1cc(=O)c2c(Cc3cc(O)c(Cc4c(O)cc(Cc5cc(=O)c6c(C)cc(O)cc6o5)oc4=O)c(=O)o3)cccc2o1 | inactive | inactive | inactive | inactive | 
9 | Cc1cc(=O)c2c(Cc3cc(O)c(Cc4c(O)cc(Cc5cccc6c5C(=O)CC(C)(O)O6)oc4=O)c(=O)o3)cccc2o1 (stereo not drawn) | inactive | inactive | inactive | inactive | 
10 | CCOC(=O)C[C@@H]1Oc2cc(C)oc(=O)c2[C@@H]1c1c(O)cc(C)oc1=O | inactive | inactive | inactive | inactive | 
11 | CN[C@H](CC(C)C)C(=O)N[C@H]1C(=O)N[C@@H](CC(N)=O)C(=O)N[C@H]2C(=O)N[C@H]3C(=O)N[C@H](C(=O)N[C@H](C(=O)O)c4cc(O)cc(O)c4-c4cc3ccc4O)[C@H](O)c3ccc(c(Cl)c3)Oc3cc2cc(c3O[C@@H]2O[C@H](CO)[C@@H](O)[C@H](O)[C@H]2O[C@H]2C[C@](C)(N)[C@H](O)[C@H](C)O2)Oc2ccc(cc2Cl)[C@H]1O [VANCOMYCIN] |  |  |  |  | MBC (Staphylococcus aureus [2]): 4 µg/mL (≈ 2.76 µM); MBC (Staphylococcus aureus [4]): 4 µg/mL (≈ 2.76 µM); MIC (Bacillus subtilis [5]): 0.5 µg/mL (≈ 0.345 µM); MBC (Bacillus subtilis [6]): 0.5 µg/mL (≈ 0.345 µM); Activity [15]: Active; Activity [16]: Active; Activity [17]: Active; Drug metabolism [18]: metabolite_detected; MIC (Staphylococcus aureus [19]): 8 µg/mL (≈ 5.52 µM); MIC (Staphylococcus aureus [20]): 16 µg/mL (≈ 11 µM); MIC (Staphylococcus aureus [21]): 8 µg/mL (≈ 5.52 µM); MIC (Staphylococcus aureus [22]): 16 µg/mL (≈ 11 µM)

Reference: ChEMBL document CHEMBL6092122, “Nonenzymatic Sequestering of Formaldehyde into the Antibiotic Methylene-Bridged Dimer Phaeochromycin F by Streptomyces sp. OUCMDZ-4982 as a Possible Multipronged Chemical Defense Mechanism” (J Nat Prod, 2024)
